Assay [1] is described as follows: Inhibitory concentration of Bacillus stearothermophilus glucosidase (of family 13 alpha-glucosidase) at 1 umol/mL. Also noted: species or system Geobacillus stearothermophilus.
Assay [2] concerns the target T1, Alpha-glucosidase (Apis mellifera, UniProt Q17058).
T1 sequence (Q17058 whole entry): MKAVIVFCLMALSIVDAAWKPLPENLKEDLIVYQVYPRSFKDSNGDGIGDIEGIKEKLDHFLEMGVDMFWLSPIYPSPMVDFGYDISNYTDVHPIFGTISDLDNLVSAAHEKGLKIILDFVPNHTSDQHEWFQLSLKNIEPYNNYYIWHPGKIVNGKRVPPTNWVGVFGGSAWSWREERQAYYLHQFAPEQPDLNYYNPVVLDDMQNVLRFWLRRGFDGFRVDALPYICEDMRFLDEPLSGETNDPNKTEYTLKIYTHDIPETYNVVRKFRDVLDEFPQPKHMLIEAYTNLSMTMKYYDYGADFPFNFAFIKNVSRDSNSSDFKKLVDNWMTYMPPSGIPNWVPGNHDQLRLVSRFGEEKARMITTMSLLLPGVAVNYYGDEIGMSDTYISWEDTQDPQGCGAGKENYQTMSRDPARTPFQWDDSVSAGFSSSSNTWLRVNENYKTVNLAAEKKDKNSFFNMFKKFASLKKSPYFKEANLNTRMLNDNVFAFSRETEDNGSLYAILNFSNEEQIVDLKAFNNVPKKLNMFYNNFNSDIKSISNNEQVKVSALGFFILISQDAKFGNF
In words: Inhibition of family 13 alpha-glucosidase isoform I from honey bee at 1 umol/mL.

The target of assay [3] is T2, Alpha-glucosidase (Apis mellifera) (UniProt Q17058).
T2 sequence (whole entry): T1 sequence (Q17058 whole entry)
In words: Inhibition of family 13 alpha-glucosidase isoform II from honey bee. To be noted: concentration not given here.

Assay [4] addresses T3, Cytosolic beta-glucosidase (Homo sapiens) (UniProt Q9H227).
T3 sequence (whole entry): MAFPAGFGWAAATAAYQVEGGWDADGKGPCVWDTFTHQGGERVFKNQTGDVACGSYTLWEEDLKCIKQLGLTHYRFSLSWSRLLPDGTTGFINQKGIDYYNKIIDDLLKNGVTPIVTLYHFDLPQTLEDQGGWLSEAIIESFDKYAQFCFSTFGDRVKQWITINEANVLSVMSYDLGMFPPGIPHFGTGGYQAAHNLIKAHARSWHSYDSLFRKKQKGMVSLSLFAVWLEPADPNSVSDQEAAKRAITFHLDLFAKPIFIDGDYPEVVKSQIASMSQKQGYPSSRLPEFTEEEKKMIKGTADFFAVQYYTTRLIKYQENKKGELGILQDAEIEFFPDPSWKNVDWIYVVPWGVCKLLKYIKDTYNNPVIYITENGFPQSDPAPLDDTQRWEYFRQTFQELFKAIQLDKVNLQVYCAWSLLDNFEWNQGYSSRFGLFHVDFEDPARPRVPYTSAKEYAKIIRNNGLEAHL
In words: Inhibition of beta-Glucosidase at 1 umol/mL.

Assay [5] in a line: Inhibition of beta-Mannosidase. The conditions noted are these: Homo sapiens; concentration not given here.
In assay [6] the target is T4, Mannosyl-oligosaccharide glucosidase (Homo sapiens) (UniProt Q13724).
T4 sequence (whole entry): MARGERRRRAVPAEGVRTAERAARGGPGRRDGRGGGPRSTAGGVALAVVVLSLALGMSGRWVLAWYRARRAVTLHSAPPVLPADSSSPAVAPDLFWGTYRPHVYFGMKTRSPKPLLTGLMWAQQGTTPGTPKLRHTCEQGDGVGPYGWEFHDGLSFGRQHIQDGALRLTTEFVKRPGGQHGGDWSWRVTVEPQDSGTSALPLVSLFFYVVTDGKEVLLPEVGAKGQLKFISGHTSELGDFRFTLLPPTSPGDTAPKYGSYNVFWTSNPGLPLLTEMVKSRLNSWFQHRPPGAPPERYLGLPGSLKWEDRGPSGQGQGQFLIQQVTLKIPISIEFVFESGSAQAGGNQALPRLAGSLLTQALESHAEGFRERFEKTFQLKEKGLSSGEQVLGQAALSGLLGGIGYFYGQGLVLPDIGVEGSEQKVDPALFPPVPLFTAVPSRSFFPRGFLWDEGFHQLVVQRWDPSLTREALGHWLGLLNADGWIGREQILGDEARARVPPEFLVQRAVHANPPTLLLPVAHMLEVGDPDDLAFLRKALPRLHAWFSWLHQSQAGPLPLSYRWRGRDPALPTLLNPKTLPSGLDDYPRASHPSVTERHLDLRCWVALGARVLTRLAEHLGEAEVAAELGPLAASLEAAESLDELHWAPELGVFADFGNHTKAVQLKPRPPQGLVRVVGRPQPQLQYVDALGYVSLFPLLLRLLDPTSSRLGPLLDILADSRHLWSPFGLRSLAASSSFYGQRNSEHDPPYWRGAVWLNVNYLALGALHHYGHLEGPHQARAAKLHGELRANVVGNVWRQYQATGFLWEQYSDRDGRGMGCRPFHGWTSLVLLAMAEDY
In words: Inhibition of Glucosidase 1(of Endoplasmic reticulum processing alpha-glucosidase) at 2 umol/mL.

Assay [7] addresses T2, Alpha-glucosidase (Apis mellifera). In words: Inhibition of family 13 alpha-glucosidase isoform I from honey bee. The conditions noted are these: concentration not given here.

pIC50: −log10 of the molar value.

Broadly, the pIC50 is the IC50 on a negative log10 scale, so that one unit is a factor of ten. As for `O=C(CCCCO)NCC1OC(CO)C(O)C(O)C1O` (configuration not stated), the pIC50 in assay [1] is 3.38.
As to `O=C(CO)NCC1OC(CO)C(O)C(O)C1O` (configuration not stated), the pIC50 in assay [2] was 3.07.
As usually defined, the inhibition is the change of the read-out against control, counted positive when it falls. High values mean a response far below the control, low ones a response near the control. As for `O=C(NCC1OC(CO)C(O)C(O)C1O)c1ccccc1` (configuration not stated), the inhibition in assay [3] was 12.3%; in assay [4], below 1%; in assay [5], below 1%; in assay [6], 18.2%.
`O=C(CCCO)NCC1OC(CO)C(O)C(O)C1O` (configuration not stated) came in with an inhibition in assay [7] below 1%.

(Values after ChEMBL document CHEMBL1142021, “Aglycon specificity profiling of alpha-glucosidases using synthetic probes” (Bioorg Med Chem Lett, 2005).)
